Measured values reported in patent publication US12390449B2, “Substituted 2-aminobenzimidazoles analogs as antibiofilm agents” (priority 2018, dated 2025).
Entries after “also recorded” stand apart in the source; their conditions may differ. Structures can show the parent of a compound that is named as a salt. Where two headings read alike, the source gives them in different places.

Assays:
[1] = system: Galleria mellonella larvae; assay: Toxicity assay in Galleria mellonella larvae; type: in vivo; settings: 400 mg kg^−1
Method: FIGS. 5A-5B show representative toxicity data obtained for a representative disclosed compound. […] Briefly, S. typhimurium (JSG210) was grown in the presence of a representative disclosed compound, compound M4, present at a concentration of 10 μM for 24 hours, followed by determination of viability measured by drip plating at T=0, 2, 5, 15, 20, 24 hours. 3 biological replicates were tested. […] Briefly, a representative disclosed compound, compound M4, was injected into last left proleg of Galleria mellonella larvae at 400 mg/kg and assessed at 24-hour intervals over 5 days. The study was repeated 3 times using 10 larvae per experiment group.
Toxicity was measured by drip plating and counting cfu/mL.

[2] = system: Salmonella typhimurium ATCC14028 Biofilms; assay: Inhibitory effect of test compounds on Salmonella typhimurium ATCC14028 biofilms (crystal violet, 96-well); type: cell-based
Method: Procedure to Determine the Inhibitory Effect of Test Compounds on Salmonella typhimurium ATCC14028 Biofilms: […] Stock solutions of predetermined concentrations of the test compounds were then made in 1 mL of bacterial culture. […] Sample plates were then incubated for 24 h at 30° C. After incubation, the medium was discarded from the wells and the plates were washed thoroughly with water. Plates were then stained with 110 μL of 0.1% solution of crystal violet (CV) and then incubated at ambient temperature for 30 min. Plates were washed with water again and the remaining stain was solubilized with 200 μL of 95% ethanol. A sample of 125 μL of solubilized CV stain from each well was transferred to the corresponding wells of a polystyrene microtiter dish. Biofilm inhibition was quantitated by measuring the OD540 of each well in which a negative control lane wherein no biofilm was formed served as a background and was subtracted out.

[3] = system: S. typhimurium ATCC 14028; assay: Growth curves, planktonic bacterial growth; type: cell-based; settings: at their IC50 values; hydrochloride
Method: Growth Curves: S. typhimurium was grown overnight in TSB, and this culture was used to inoculate fresh 1:20 TSB (OD600=0.08). Inoculated medium was aliquoted (3 mL) into culture tubes, and compound was added, with untreated inoculated medium serving as the control. Tubes were incubated at 30° C. with shaking. Samples were taken at 2, 4, 6, 8, and 24 h time points, serially diluted in fresh 1:20 TSB, and plated on nutrient agar. Plates were incubated at 37° C. overnight in stationary conditions, and the number of colonies was enumerated.

[4] = Salmonella enterica, 24 h, read-out: IC50 (μM), inhibition of biofilm formation, S. typhimurium ATCC14028, 24 h at 30° C., crystal violet OD540
[5] = read-out: IC50 (μM), inhibition of biofilm formation, S. typhimurium ATCC14028, 24 h at 30° C., crystal violet OD540, hydrochloride

| SMILES | toxicity to G. mellonella [1] | IC50 [2, 4] [µM] | IC50 [2, 5] [µM] | IC50 ([2]; read-out: IC50 (μM), inhibition of biofilm formation, S. typhimurium ATCC14028, 24 h at 30° C., crystal violet OD540, listed as 15d, hydrochloride) [µM] | toxicity to planktonic bacterial growth [3] |
| --- | --- | --- | --- | --- | --- |
| Cl.Nc1nc2cc(NC(=O)c3ccc(Cl)c(Cl)c3)ccc2n1CCCc1ccccc1 [Compound 10d, N-(2-Amino-1-(3-phenylpropyl)-1H-benzo[d]imidazol-5-yl)-3,4-dichlorobenzamide hydrochloride] | no toxicity | < 7 | 6.3 ± 1.29 | 6.3 ± 1.29 | – |
| Cl.Nc1nc2cc(NC(=O)c3cc(Cl)cc(Cl)c3)ccc2n1CCCc1ccccc1 [Compound 10e, N-(2-Amino-1-(3-phenylpropyl)-1H-benzo[d]imidazol-5-yl)-3,5-dichlorobenzamide hydrochloride] | no toxicity | 10 to 15 | 13.3 ± 0.49 | – | – |
| Cl.Nc1nc2cc(NC(=O)Nc3ccc(Cl)c(Cl)c3)ccc2n1CCCc1ccccc1 [Compound 20, 1-(2-Amino-1-(3-phenylpropyl)-1H-benzo[d]imidazol-5-yl)-3-(3,4-dichlorophenyl)urea hydrochloride] | – | 7.69 ± 0.25 | – | – | no toxicity; also recorded: non-toxic |
| CCCCCOc1ccc(C(=O)Nc2ccc3c(c2)nc(N)n3CCCc2ccccc2)cc1.Cl [Compound 10a, N-(2-Amino-1-(3-phenylpropyl)-1H-benzo[d]imidazol-5-yl)-4-pentoxybenzamide hydrochloride] | – | 5.22 ± 0.11 | – | – | no toxicity; also recorded: non-toxic |
| CCCc1ccc(C(=O)Nc2ccc3c(c2)nc(N)n3CCCc2ccccc2)cc1 [Compound 10k, N-(2-Amino-1-(3-phenylpropyl)-1H-benzo[d]imidazol-5-yl)-4-propylbenzamide hydrochloride] | – | 15 to 20 | – | – | – |
| CCCCCCn1c(N)nc2cc(NC(=O)c3ccc(CCCCC)cc3)ccc21 [Compound 5c, N-(2-Amino-1-hexyl-1H-benzo[d]imidazol-5-yl)-4-pentylbenzamide hydrochloride] | – | 10.8 ± 0.56 | – | – | – |
